A short description of this data set: Water solubility of 5-FU. The class given is physicochemical. The note with it: read-out: measured water solubility. As for the experimental part: A hyaluronic acid formulation that includes 5-FU can be prepared as described. 5-FU is combined with 10 mg hyaluronic acid (1 MDa), 1 ml sterile water. The product is stirred until a uniform gel solution, free of particular polymer or drug is achieved. Alternatively, the HA and water may be combined, stirred and autoclaved to homogenize the solution. After dissolving the polymer, the 5-FU may be added with stirring. NaCl is added (as required for isotonicity), and the pH is adjusted to between 6-8 with NaOH and HCl as required. […] The formulation may be injected to the site of treatment (e.g., into a joint) in a volume appropriate to that site. For example, a knee joint might receive a 2 ml injection, whereas a finger joint or tendon sheath may receive substantially less.

Broadly, the solubility is how much of the substance goes into solution per volume. Regarding `O=c1[nH]cc(F)c(=O)[nH]1` [Formula 5-FU, 5-Fluorouracil], the solubility amounted to 12.9 mg/mL.

The values are drawn from US20090203632A1, “COMPOSITIONS AND METHODS FOR TREATING CONTRACTURE” (Angiotech International AG, priority 2004, published 2009).
